From US20230263915A1, “RADIOLABELED COMPOUNDS” (King's College London, priority 2020, published 2023)
One block for each compound: values may come before it.

How the values were obtained:
[1] = system: xanthine oxidase/xanthine system; assay: Oxidation by superoxide generated by the xanthine oxidase/xanthine system; type: biochemical; settings: xanthine (1 mM) and catalase in PBS, 37° C., 5 min
[2] = PET imaging study in healthy C57BL/6J mice; type: in vivo
Experimental: Wild type C57BL/6J mice (male, 26±2 g) were injected intravenously via the tail vein with [^18F]FM074 (1.2±1.1 MBq) in PBS containing sodium ascorbate (0.01 mg/mL). The animals were sacrificed either 3 min post-injection or after a 60 min PET (n=3/group). Organs and tissues of interest were harvested, weighed and the radioactivity measured in a gamma counter. Organ uptake was calculated as percentage injected dose per gram of tissue mass (% ID/g). Data are reported as mean±SD.
The radiotracer is excreted by both renal and hepatobilliary routes in less than 1 hour (FIG. 5).

[3] = system: oxidative stress in heart (left ventricle); assay: PET/CT imaging in rat model of Doxorubicin-induced cardiotoxicity; type: in vivo, rats
Experimental: Wistar rats were randomly divided into two groups and were subjected to the implantation of an Alzet Osmotic minipump containing either Doxorubicin (30 mg/kg) in saline (n=6) or saline only (n=4) as control. The minipump releases the drug at a constant rate over seven days, after which PET/CT imaging was performed.
(§1) Male Wistar rats (280-300 g) were used in all experiments. Subcutaneous 7-day osmotic pumps (Alzet), containing either Doxorubicin (Cambridge Bioscience, 30 mg/kg cumulative dose) or vehicle (sterile 0.9% NaCl), were inserted into rats under 2% isoflurane in 100% oxygen.
Doxorubicin (30 mg/kg) or only vehicle (saline) was delivered to the animals using the osmotic minipump for seven days, after which PET/CT imaging was performed.
Animals were placed in a warm box at 37° C. before being transferred to an anaesthesia induction box under an 02 flow rate of 1 L/min with isofluorane levels of 5%. The anaesthetised rats were transferred to the PET bed and kept under anaesthesia with an O2 flow rate of 1 L/min with isofluorane levels of 2.5%. The radiotracer (0.5-2.2 MBq, 200-600 μL in maximum 5% EtOH in PBS) was injected intravenously via a cannula inserted into a tail vein. The injection start time coincided with the start of the PET acquisition in order to obtain dynamic tracer uptake information. The PET scans were acquired for 30 min, followed by a CT scan, after which the animals were sacrificed and organs harvested as for the biodistribution protocol. The PET data was analysed using VivoQuant.
Subsequently, both groups were subjected to 30 min PET/CT scans with chest cavity in the field of view on day 7 of the treatment. (FIG. 8) The PET images were analysed into three segments: from 0 to 3 min, 3 to 10 min, and 10 to 30 min post-injection of ^18F-FM074.

[4] = LogD measurement, shake-flask partition between 1-octanol and PBS; type: physicochemical; settings: 1-octanol / PBS pH 7.4
Experimental: The lipophilicity of ^18F-FM074 and ^18F-FM074-Ox was determined by measuring their logD values using a variation of the conventional shake-flask method, namely a conventional partition method between 1-octanol and phosphate buffered saline (PBS), pH 7.4. The 1-octanol was saturated with PBS before use. The radiotracer (1 μL) in ethanol was added to a mixture of PBS (200 μL) and 1-octanol (200 μL) in a 1.5 mL Eppendorf vial (n =6). The vial was sealed and shaken, then centrifuged at 3000 g for 10 min. A 100 μL aliquot from each layer was drawn was added to separate tubes. The radioactivity content of each fraction was measured in a gamma counter. The LogDoct/PBS as calculated as follows: log [(cpm in the 1-octanol layer-cpm 1-octanol blank)/(cpm in the PBS layer-cpm pbs blank)].

[5] = Chemoselectivity study: oxidation by other ROS, radioHPLC; settings: in vitro; for reactivity to other biologically relevant ROS: qualitative
Experimental: The different oxidants were prepared in PBS (900 μL). The ^18F-labelled compound was formulated as 0.5-2 MBq in 100 μL ethanol and added to the oxidant PBS solution. The final reaction mixture contains the ^18F-labelled compound (0.5-2 MBq) in the presence of 100 μM oxidant in PBS with 10% ethanol (final volume 1000 μL). The reaction was kept at room temperature for 5 min, after which it was injected into the HPLC for analysis. • Superoxide (O2^−): The ^18F-labelled compound in ethanol (100 μL) was added to PBS (900 μL) and the resulting solution was then added to a vial containing solid KO2 (1 mg), to make up a reaction mixture with 10 mM O2^−. • Hydrogen peroxide (H202): H2O2 (10 mM stock solution, 10 μL) was diluted in PBS (890 μL) followed by addition of the ^18F-labelled compound in ethanol (100 μL), to a final concentration of 100 μM. • Hydroxyl radical (⋅OH): hydroxyl radicals were generated in situ by reacting hydrogen peroxide (H202, 100 μM) with iron II ([…]). FeSO2.7H2O (5 mM stock, 200 μL) was diluted in PBS (690 μL) and H2O2 (10 mM stock, 10 μL) was added, followed by the ^18F-labelled compound in 100 μL ethanol. • Iron (II) sulfate heptahydrate (Fe^2+) (control): FeSO2.7H2O (5 mM stock, 200 μL) was diluted to a final concentration of 1000 μM in PBS (700 μL), and the ^18F-labelled compound in 100 μL ethanol was added after. • tert-butyl hydroperoxide (TBHP): TBHP (10 mM stock, 10 μL) was diluted in PBS (890 μL) followed by addition of the ^18F-labelled compound in ethanol, to a final concentration of 100 μM. • Tert-butoxy radical (t-BuO⋅): t-butoxy radicals were generated in situ by reacting tert-butyl hydroperoxide (TBHP, 100 μM) with Fe^2+ (1000 μM). FeSO2.7H2O (5 mM stock, 200 μL) was diluted in PBS (690 μL) and TBHP (10 mM stock, 1 μL) was added, followed by the ^18F-labelled compound in ethanol. • Peroxynitrite (ONOO^−): peroxynitrite was generated in situ by spontaneous decomposition of 3-morpholinosydnomine (SIN-1) in solution. […]

[6] = Stability tests monitored by HPLC in ethanol / PBS; type: physicochemical
Experimental: (§2) Stability tests monitored by HPLC indicate that ^18F-FM074 is stable in both pure ethanol and 1% ethanol in PBS in the presence of ascorbic acid (0.01 mg/mL) for 4 h (not tested for longer). When incubated in rat serum at 37° C., 90% of ^18F-FM074 was intact in 1 hour (FIG. 3(A)). The stability of ^18F-FM108 in PBS was also determined and it was stable in 30 minutes (FIG. 3(B)).

[7] = Stability in rat serum at 37° C. determined by radioHPLC; type: in vitro ADME; settings: 1 hour
Experimental: as §2

[8] = Biodistribution in healthy Wistar rats; type: in vivo; settings: for uptake by major organs (brain, heart, lung, spleen): i.v., 1, 5 and 30 min post-injection
Experimental: Male Wistar rats (290-355 g) were placed in a warm box at 37° C. before being transferred to an anaesthesia induction box under an O2 flow rate of 1 L/min with isofluorane levels of 5%. The anaesthetised rat was transferred to an anaesthesia mask with an O2 flow rate of 1 L/min with isofluorane levels of 2.5%. The radiotracer (0.5-2.2 MBq, 200-600 μL in maximum 5% EtOH in PBS) was injected intravenously via a cannula inserted into a tail vein. The animals were sacrificed by cervical dislocation at 1, 5, and 30 min post-injection (n=3/group). The heart was immediately removed and rinsed with saline to washout the blood. Organs of interest as well as blood and urine were collected and the radioactivity measured in a gamma counter.

[9] = Chemoselectivity study: oxidation by superoxide (KO2), radioHPLC; settings: for oxidation by superoxide: 1 mg/mL KO2 in solution, 5 min, room temperature; for oxidation by superoxide in the presence of ascorbic acid: KO2 plus ascorbic acid 1 mg/mL
Experimental: The different oxidants were prepared in PBS (900 μL). The ^18F-labelled compound was formulated as 0.5-2 MBq in 100 μL ethanol and added to the oxidant PBS solution. The final reaction mixture contains the ^18F-labelled compound (0.5-2 MBq) in the presence of 100 μM oxidant in PBS with 10% ethanol (final volume 1000 μL). The reaction was kept at room temperature for 5 min, after which it was injected into the HPLC for analysis. • Superoxide (O2^−): The ^18F-labelled compound in ethanol (100 μL) was added to PBS (900 μL) and the resulting solution was then added to a vial containing solid KO2 (1 mg), to make up a reaction mixture with 10 mM O2^−. • Hydrogen peroxide (H202): H2O2 (10 mM stock solution, 10 μL) was diluted in PBS (890 μL) followed by addition of the ^18F-labelled compound in ethanol (100 μL), to a final concentration of 100 μM. • Hydroxyl radical (⋅OH): hydroxyl radicals were generated in situ by reacting hydrogen peroxide (H202, 100 μM) with iron II ([…]). FeSO2.7H2O (5 mM stock, 200 μL) was diluted in PBS (690 μL) and H2O2 (10 mM stock, 10 μL) was added, followed by the ^18F-labelled compound in 100 μL ethanol. • Iron (II) sulfate heptahydrate (Fe^2+) (control): FeSO2.7H2O (5 mM stock, 200 μL) was diluted to a final concentration of 1000 μM in PBS (700 μL), and the ^18F-labelled compound in 100 μL ethanol was added after. • tert-butyl hydroperoxide (TBHP): TBHP (10 mM stock, 10 μL) was diluted in PBS (890 μL) followed by addition of the ^18F-labelled compound in ethanol, to a final concentration of 100 μM. • Tert-butoxy radical (t-BuO⋅): t-butoxy radicals were generated in situ by reacting tert-butyl hydroperoxide (TBHP, 100 μM) with Fe^2+ (1000 μM). FeSO2.7H2O (5 mM stock, 200 μL) was diluted in PBS (690 μL) and TBHP (10 mM stock, 1 μL) was added, followed by the ^18F-labelled compound in ethanol. • Peroxynitrite (ONOO^−): peroxynitrite was generated in situ by spontaneous decomposition of 3-morpholinosydnomine (SIN-1) in solution. SIN-1 (5 mM stock, 1 μL) was diluted in PBS (989 μL) containing the ^18F-labelled compound in ethanol (10 μL), to give a final concentration of […] ONOO^− in solution. • Nitric oxide (NO): NO was generated in situ by the NO-donor drug diethylamine NONOate (DEA/NO). A 33 mM stock solution of DEA/NO in 10 mM NaOH was used. 1 μL was diluted in PBS (990 μL) containing the ^18F-labelled compound in ethanol (10 μL), to give a final concentration of 33 μM DEA/NO in solution. The reaction was allowed to take place for 32 min at room temperature (˜20° C.) to allow DEA/NO to decompose into diethylamine and nitric oxide radical (NO) at a concentration of 50 μM, before HPLC analysis.

left ventricle function = assay: Echocardiography (cardiac ultrasound) in Doxorubicin minipump rats; type: in vivo
Experimental: In order to assess cardiac function all rats were subjected to a cardiac ultrasound (Vevo 770™, VisualSonics) one day prior to osmotic pump implantation and a second ultrasound one day prior to PET/CT imaging. Rats were anaesthetized with 2% isoflurane in 100% oxygen and maintained at 37° C. via a homoeothermic platform and rectal thermometer. High-resolution parasternal left ventricle (LV) long axis M-mode and B-mode images were obtained using a RMV710B transducer. Images were analysed offline using Vevo Software to determine LV function.
as §1

[10] = healthy C57BL/6 mice, i.v., PET

oxidised tracer observed in radioHPLC chromatogram [1]: 53%
non-specific background retention ([2]; healthy C57BL/6 mice, heart and brain, PET): no non-specific background retention
blood clearance [2, 10]: fast blood clearance
time to excretion by renal and hepatobilliary routes [2, 10]: less than 1 hour
tissue penetration [2, 10]: excellent tissue penetration
uptake by heart and brain [2, 10]: rapidly taken up
bone uptake (defluorination in vivo) ([2]; mice, after 1 hour): minimal
logD [4]: 1.00±0.08
stability in 1% ethanol in PBS ([6]; 1% ethanol in PBS in the presence of ascorbic acid (0.01 mg/mL), for 4 h, HPLC): stable
stability in pure ethanol ([6]; pure ethanol, for 4 h (not tested for longer), HPLC): stable
intact tracer in rat serum [7]: 90%
clearance from the blood pool ([8]; 1 min post-injection): fast clearance
time to clearance from major organs ([8]; hepatic and renal metabolism, excreted to small intestine and urine): under 30 min
uptake by major organs (brain, heart, lung, spleen) [8]: rapid initial uptake
uptake in bone and muscle ([8]; within 30 min): little uptake
Structure (SMILES): [18F]CCCN1c2ccccc2SC1c1ccccc1 (stereo not drawn) [^18F-FM074, [^18F]3-(3-fluoropropyl)-2-phenyl-2,3-dihydrobenzo[d]thiazole]
ratio of standard uptake values LV to blood, Doxorubicin-treated vs control rats ([3]; 3-10 min post-injection, day 7 of Doxorubicin 30 mg/kg minipump): significantly (p<0.05) higher
liver uptake ([3]; PET, Doxorubicin model rats, no significant difference between treated and control): high uptake
heart uptake ex vivo after the PET/CT scan, treated vs control ([3]; ex vivo, after 30 min scan): no significant difference
washout rate from the LV, Doxorubicin treated vs control ([3]; time-activity curves, FIG. 10): two-fold slower
reactivity to other biologically relevant ROS [5]: little or no reactivity
oxidation by other endogenous ROS ([5]; ⋅OH, H2O2, ⋅NO, ONOO^−): less than 10%
oxidation by superoxide [9]: 58±8%
oxidation by superoxide in the presence of ascorbic acid [9]: 31±5%

logD [4]: −1.00±0.04
clearance route ([8]; excreted through the urine): quickly cleared by the kidneys
uptake by major organs (brain, heart, lung, spleen) [8]: significantly reduced uptake
Structure (SMILES): [18F]CCC[n+]1c(-c2ccccc2)sc2ccccc21.[Cl-] [^18F-FM074-Ox, [^18F]-(3-fluoropropyl)-2-phenylbenzo[d]thiazol-3-ium chloride]

logD [4]: 0.83±0.12
stability in PBS ([6]; PBS, 30 minutes (FIG. 3(B))): stable
Structure (SMILES): COc1ccc(C2Sc3ccccc3N2CCC[18F])cc1 (stereo not drawn) [^18F-FM108, [^18F]3-(3-fluoropropyl)-2-(4-methoxyphenyl)-2,3-dihydrobenzo[d]thiazole]
reactivity to other biologically relevant ROS [5]: little or no reactivity
oxidation by superoxide [9]: 54±4%
oxidation by superoxide in the presence of ascorbic acid [9]: 38%

reduction of left ventricle ejection fraction vs baseline (left ventricle function; 30 mg/kg via 7-day osmotic minipump, day 6 compared to day 0): 15%
left ventricle ejection fraction, Doxorubicin treated vs control groups (left ventricle function; ultrasound, FIG. 7): no significant difference
Structure (SMILES): COc1cccc2c1C(=O)c1c(O)c3c(c(O)c1C2=O)C[C@@](O)(C(=O)CO)C[C@@H]3O[C@H]1C[C@H](N)[C@H](O)[C@H](C)O1 [Doxorubicin]
